Structures are written as SMILES.

Broadly, the melting point is the temperature of the solid-liquid transition.

In turn, `O=C(O)C1C(c2ccc(Cl)c(F)c2)C1(Cl)Cl` (stereo not drawn) displayed a melting point of 140 to 142 °C. The same measure for `O=C(Nc1ccc(F)cc1)c1cccc([N+](=O)[O-])n1`: 169 to 170 °C; for `O=C(O)c1cc(NC(=O)C2C(c3cc(Cl)cc(Cl)c3)C2(Cl)Cl)cc(Cl)c1Cl` (stereo not drawn): 231 to 235 °C. The same measure for `O=C(O)c1cc(NC(=O)C2C(c3cc(Cl)cc(Cl)c3)C2(Cl)Cl)c(Cl)cc1Cl` (stereo not drawn): 263 to 266 °C; for `Nc1ccc(Cl)c(C(=O)Nc2ccc(-c3ncco3)cc2)c1`: 227 °C (dec.); for `CCc1ccc(N)cc1C(=O)Nc1ccc(F)cc1`: 129 to 131 °C. In the case of `O=C(Nc1ccc(-n2cccn2)cc1)c1cc([N+](=O)[O-])ccc1Cl` it was 200 to 205 °C. For the compound `COc1ccc(C2C(c3cc(F)c(Br)c(F)c3)C2(Cl)Cl)cc1` (stereo not drawn), the melting point lay in the range of 104 to 109.3 °C.

In turn, `C=Cc1ccc([N+](=O)[O-])cc1C(=O)Nc1ccc(F)cc1` registered a melting point of 158 to 160 °C. `Cc1ccc([N+](=O)[O-])cc1N(C)C(=O)OC(C)(C)C` returned a melting point of 57 to 60 °C. The same measure for `O=C(O)C1C(c2cc(Cl)c(Cl)cc2Cl)C1(Cl)Cl` (stereo not drawn): 189 to 192 °C; for `O=C(O)C1C(c2cc(C(F)(F)F)cc(C(F)(F)F)c2)C1(Cl)Cl` (stereo not drawn): 112 to 114 °C. In the case of `O=C(O)C1C(c2cc(Br)cc(Br)c2)C1(Cl)Cl` (stereo not drawn) it was 157 to 159 °C; in that of `O=C(O)C1C(c2ccc(F)c(Cl)c2)C1(Cl)Cl` (stereo not drawn) [C16], 121 to 123 °C. The same measure for `O=C(O)C1C(c2ccc(F)c(Cl)c2)C1(Cl)Cl` (stereo not drawn) [C420]: 119 to 121 °C.

These data come from US10219516B2, “Molecules having pesticidal utility, and intermediates, compositions, and processes, related thereto” (priority 2015, dated 2019).
